Paper PMC8958505, “Discovery of Potential Neuroprotective Agents against Paclitaxel-Induced Peripheral Neuropathy” (Journal of Medicinal Chemistry, 2022)
Several values for one entry are separate records, joined by “and”; a condition that tells them apart may be missing. Identical values can stand only once. Counter-ions that a name gives are not always drawn. Like-named read-outs stand apart in the source and are kept apart here.

How the values were obtained:
[1] = test system: mouse primary DRG neurons; assay: Neurite outgrowth assay of DRG neurons (image-based HCS) against paclitaxel-induced neurotoxicity; assay type: cell-based; conditions: for activation at 1 µM: Mus musculus, DRG neuron
Summary of the method: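 Mouse primary DRG neurons exposed to compound with 50 nM paclitaxel, then fixed and stained for β III tubulin (neurites), NeuN and Hoechst.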

[2] = Pharmacokinetics after intraperitoneal administration; assay type: in vivo; conditions: male, ICR, mouse, plasma, 5 mg/kg, 5 mg/kg IP, at one hour
Experimental: Male ICR mice weighed (29–33 g) were obtained from BioLASCO (Taiwan Co., Ltd., Ilan, Taiwan). The animal studies were performed according to NHRI institutional animal care and committee-approved procedures. Food and water were available ad libitum throughout the experiment. A single 5.0 mg/kg dose of CN016 was dissolved in normal saline and was separately administered to mice intravenously. The groups consisted of three mice for each time point. At times 0.03, 0.08, 0.25, 0.5, 1, 2, 4, 6, 8, 16, and 24 h after dosing, blood was collected from groups of three mice at each time point by cardiac puncture. Plasma was separated from blood and stored in a freezer (−80 °C) before LC/MS/MS analysis. In addition, pharmacokinetic analysis of CN016 following intraperitoneal administration (IP, 5 mg/kg) is provided in Figure S2 (Supporting Information).
Figure S2. Pharmacokinetic profiles of CN016 (5 mg/kg) after intraperitoneal administration. (A) Plasma concentration-time profiles of the CN016 after intraperitoneal injection of a 5 mg/kg dose. Red Circle: a drug concentration of 10 nM.
Blue Triangle: a drug concentration of 1000 nM. (B) Pharmacokinetic parameter of CN016 after intraperitoneal administration.
The pharmacokinetics of CN016 after IP administration (5 mg/kg) is illustrated in Figure S2. […]

Adrenergic β1 = Adrenergic β1 (Homo sapiens, UniProt P08588); assay: LeadProfilingScreen: Adrenergic β1; assay type: binding; conditions: read-out: Inhibition (%), Adrenergic β1
Description: LeadProfilingScreen (Total # of Assays: 67)
To evaluate, in LeadProfilingScreen, the activity of test compound CN168 (Panlabs # 1251879). […]
Summary of Significant Results
Biochemical assay results are presented as the percent inhibition of specific binding or activity throughout the report.
All other results are expressed in terms of that assay's quantitation method.
• For primary assays, only the lowest concentration with a significant response judged by the assays' criteria, is […]
• Where applicable, either the secondary assay results with the lowest dose/concentration meeting the significance […]
• Unless otherwise requested, primary screening in duplicate with quantitative data (e.g., IC50 ± SEM, Ki ± SEM and nH) are shown where applicable for individual requested assays. In screening packages, primary screening in duplicate with semi-quantitative data (e.g., estimated IC50, Ki and nH) are shown where applicable (concentration range of 4 log units); available secondary functional assays are carried out ([…]) and MEC or MIC determined only if active in primary assays >50% at 1 log unit below initial test concentration. […]

Dopamine D3 = Dopamine D3 (Homo sapiens, UniProt P35462); assay: LeadProfilingScreen: Dopamine D3; assay type: binding
Endothelin ETB = Endothelin ETB (Homo sapiens, UniProt P24530); assay: LeadProfilingScreen: Endothelin ETB; assay type: binding
Estrogen ERα = Estrogen ERα (Homo sapiens, UniProt P03372); assay: LeadProfilingScreen: Estrogen ERα; assay type: binding
Glutamate, Kainate = assay: LeadProfilingScreen: Glutamate, Kainate; assay type: binding, rat; conditions: 10 μM
Histamine H1 = Histamine H1 (Homo sapiens, UniProt P35367); assay: LeadProfilingScreen: Histamine H1; assay type: binding
Histamine H2 = Histamine H2 (Homo sapiens, UniProt P25021); assay: LeadProfilingScreen: Histamine H2; assay type: binding
Muscarinic M2 = Muscarinic M2 (Homo sapiens, UniProt P08172); assay: LeadProfilingScreen: Muscarinic M2; assay type: binding
[3] = molecular target: Nicotinic Acetylcholine α1, Bungarotoxin (Homo sapiens, UniProt P02708+P07510+Q07001); assay type: binding; conditions: 10 μM
[4] = test system: Purinergic P2Y, Non-Selective; assay: LeadProfilingScreen: Purinergic P2Y, Non-Selective; assay type: binding, rat; conditions: 10 μM

Chain of Nicotinic Acetylcholine α1, Bungarotoxin (P11230 24-501): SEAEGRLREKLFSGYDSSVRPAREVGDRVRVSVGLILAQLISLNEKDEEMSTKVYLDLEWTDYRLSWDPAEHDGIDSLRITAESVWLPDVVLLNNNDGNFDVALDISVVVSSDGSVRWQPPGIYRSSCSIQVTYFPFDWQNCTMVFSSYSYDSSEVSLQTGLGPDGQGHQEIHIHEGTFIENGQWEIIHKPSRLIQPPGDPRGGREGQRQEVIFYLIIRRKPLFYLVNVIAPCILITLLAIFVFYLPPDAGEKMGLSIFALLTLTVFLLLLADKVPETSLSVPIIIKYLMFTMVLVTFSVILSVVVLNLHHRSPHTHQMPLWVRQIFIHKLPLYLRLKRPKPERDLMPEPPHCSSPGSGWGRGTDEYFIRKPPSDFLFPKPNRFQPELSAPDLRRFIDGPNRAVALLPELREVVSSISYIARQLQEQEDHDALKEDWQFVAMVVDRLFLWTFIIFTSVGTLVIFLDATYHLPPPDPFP
Chain of Nicotinic Acetylcholine α1, Bungarotoxin (P07510 23-517): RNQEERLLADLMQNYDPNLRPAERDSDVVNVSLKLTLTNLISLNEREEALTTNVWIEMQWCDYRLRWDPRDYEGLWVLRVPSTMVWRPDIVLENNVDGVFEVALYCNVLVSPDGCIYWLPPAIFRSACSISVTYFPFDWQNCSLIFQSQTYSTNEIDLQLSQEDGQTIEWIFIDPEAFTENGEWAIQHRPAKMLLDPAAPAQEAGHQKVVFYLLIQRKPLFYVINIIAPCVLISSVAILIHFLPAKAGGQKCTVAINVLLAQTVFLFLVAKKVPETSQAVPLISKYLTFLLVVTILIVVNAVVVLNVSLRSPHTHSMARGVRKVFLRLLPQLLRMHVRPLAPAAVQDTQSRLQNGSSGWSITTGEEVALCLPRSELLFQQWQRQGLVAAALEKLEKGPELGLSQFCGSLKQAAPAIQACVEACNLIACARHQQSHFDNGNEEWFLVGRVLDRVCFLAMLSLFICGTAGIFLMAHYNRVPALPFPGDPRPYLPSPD
Chain of Nicotinic Acetylcholine α1, Bungarotoxin (Q07001 22-517): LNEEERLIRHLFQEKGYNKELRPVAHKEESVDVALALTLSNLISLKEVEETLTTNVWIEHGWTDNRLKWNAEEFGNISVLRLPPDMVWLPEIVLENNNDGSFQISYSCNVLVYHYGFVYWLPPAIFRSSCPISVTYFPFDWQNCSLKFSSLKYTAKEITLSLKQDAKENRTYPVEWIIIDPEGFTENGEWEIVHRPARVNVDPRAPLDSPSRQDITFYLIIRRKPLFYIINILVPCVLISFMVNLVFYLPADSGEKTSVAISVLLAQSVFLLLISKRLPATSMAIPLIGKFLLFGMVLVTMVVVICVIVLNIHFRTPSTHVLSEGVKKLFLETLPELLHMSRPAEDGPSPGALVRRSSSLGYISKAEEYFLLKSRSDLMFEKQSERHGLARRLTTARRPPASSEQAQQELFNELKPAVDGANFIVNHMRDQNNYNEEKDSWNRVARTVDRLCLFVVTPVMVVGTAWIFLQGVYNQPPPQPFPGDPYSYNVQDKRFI
Chain of Nicotinic Acetylcholine α1, Bungarotoxin (P02708 21-457): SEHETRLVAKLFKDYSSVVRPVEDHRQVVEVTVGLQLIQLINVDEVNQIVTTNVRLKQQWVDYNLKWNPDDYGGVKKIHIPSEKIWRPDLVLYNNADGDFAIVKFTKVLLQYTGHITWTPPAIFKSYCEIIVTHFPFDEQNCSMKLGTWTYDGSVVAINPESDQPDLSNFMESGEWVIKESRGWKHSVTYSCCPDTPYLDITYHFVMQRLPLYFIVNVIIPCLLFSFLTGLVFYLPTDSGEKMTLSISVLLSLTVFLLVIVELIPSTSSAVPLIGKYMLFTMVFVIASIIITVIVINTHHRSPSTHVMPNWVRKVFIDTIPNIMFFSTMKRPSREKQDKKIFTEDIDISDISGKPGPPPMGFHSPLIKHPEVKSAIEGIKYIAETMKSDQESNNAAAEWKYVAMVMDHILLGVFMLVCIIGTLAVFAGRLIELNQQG
Chain of Dopamine D3 (P35462 whole entry): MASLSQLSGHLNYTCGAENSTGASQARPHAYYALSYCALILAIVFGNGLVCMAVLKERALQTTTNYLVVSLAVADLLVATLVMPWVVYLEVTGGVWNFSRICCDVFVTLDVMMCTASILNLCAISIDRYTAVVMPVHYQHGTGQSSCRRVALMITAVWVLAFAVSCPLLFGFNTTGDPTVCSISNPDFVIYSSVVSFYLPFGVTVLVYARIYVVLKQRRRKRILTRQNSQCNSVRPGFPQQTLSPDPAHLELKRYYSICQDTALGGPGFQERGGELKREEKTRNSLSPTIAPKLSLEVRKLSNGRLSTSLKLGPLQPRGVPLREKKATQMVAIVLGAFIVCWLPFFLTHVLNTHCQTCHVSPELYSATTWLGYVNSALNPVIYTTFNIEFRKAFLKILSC
Chain of Histamine H1 (P35367 whole entry): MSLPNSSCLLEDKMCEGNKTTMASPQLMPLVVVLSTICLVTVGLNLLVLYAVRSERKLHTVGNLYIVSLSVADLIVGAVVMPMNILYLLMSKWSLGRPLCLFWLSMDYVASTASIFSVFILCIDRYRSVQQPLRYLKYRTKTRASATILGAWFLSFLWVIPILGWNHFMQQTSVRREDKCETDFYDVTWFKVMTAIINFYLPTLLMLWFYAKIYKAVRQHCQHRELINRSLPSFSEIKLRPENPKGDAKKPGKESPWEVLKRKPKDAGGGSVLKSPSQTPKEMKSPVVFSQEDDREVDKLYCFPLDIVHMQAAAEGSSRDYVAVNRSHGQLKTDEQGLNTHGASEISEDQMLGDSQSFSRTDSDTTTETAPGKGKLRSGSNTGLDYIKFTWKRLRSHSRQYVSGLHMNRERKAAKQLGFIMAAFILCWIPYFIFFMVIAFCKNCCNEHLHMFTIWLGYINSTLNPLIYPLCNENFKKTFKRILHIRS
Chain of Endothelin ETB (P24530 27-442): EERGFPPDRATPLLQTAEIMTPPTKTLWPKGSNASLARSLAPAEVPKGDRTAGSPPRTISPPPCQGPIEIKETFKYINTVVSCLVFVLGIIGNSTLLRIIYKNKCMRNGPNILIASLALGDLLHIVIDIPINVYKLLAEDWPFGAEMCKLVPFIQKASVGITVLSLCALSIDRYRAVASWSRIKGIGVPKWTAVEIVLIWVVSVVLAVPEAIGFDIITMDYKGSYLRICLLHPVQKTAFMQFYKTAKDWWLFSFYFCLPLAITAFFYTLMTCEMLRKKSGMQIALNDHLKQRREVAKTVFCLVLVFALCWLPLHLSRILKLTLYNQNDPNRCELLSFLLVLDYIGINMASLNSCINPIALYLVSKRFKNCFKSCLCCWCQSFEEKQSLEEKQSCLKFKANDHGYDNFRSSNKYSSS
Chain of Muscarinic M2 (P08172 whole entry): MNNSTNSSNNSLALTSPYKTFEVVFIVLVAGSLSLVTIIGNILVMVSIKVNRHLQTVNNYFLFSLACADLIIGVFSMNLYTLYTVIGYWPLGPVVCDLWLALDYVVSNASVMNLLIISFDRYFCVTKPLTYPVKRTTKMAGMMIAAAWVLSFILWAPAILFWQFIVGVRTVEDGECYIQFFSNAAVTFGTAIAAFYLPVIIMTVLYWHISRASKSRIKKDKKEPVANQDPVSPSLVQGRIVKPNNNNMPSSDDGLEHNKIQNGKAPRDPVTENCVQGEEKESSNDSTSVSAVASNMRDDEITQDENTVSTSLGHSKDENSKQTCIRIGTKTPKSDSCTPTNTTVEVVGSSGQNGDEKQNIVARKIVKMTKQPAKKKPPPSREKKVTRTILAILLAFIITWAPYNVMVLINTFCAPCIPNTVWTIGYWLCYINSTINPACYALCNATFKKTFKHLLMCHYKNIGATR
Chain of Adrenergic β1 (P08588 whole entry): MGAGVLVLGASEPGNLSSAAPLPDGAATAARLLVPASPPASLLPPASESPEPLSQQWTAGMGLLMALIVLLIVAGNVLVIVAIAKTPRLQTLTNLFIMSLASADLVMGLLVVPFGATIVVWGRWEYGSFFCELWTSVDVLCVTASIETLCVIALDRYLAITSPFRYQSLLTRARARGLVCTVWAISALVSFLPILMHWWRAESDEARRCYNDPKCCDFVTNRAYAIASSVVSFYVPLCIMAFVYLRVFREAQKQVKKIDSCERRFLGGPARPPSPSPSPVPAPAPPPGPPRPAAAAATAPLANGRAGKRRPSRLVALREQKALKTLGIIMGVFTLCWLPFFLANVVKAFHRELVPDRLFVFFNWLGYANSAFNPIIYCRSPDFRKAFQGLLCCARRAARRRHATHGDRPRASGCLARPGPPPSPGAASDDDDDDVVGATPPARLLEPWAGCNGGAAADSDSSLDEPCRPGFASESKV
Chain of Estrogen ERα (P03372 whole entry): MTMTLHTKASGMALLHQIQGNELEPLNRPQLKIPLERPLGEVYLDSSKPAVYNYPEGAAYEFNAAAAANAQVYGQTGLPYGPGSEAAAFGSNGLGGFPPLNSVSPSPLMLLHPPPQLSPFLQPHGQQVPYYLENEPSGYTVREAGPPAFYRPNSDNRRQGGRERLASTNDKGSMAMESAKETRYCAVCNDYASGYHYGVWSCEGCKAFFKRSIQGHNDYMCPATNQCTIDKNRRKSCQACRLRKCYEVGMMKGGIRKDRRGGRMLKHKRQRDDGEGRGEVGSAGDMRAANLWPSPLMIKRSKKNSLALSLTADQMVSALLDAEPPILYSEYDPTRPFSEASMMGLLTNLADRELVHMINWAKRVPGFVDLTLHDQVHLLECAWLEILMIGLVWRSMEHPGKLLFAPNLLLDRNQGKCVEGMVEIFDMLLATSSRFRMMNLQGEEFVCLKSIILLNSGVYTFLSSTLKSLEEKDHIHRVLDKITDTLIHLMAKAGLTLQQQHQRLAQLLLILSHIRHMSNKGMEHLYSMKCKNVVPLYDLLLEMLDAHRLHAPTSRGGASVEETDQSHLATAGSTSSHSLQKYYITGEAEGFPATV

O=P(O)(O)CCN1CCC(Nc2cc(N3CCOCC3)nc(NCc3cn(CCCO)nn3)n2)CC1 [CN016, {2-[4-(2-{[1-(3-Hydroxy-propyl)-1H-[1,2,3]triazol-4-ylmethyl]-amino}-6-morpholin-4-yl-pyrimidin-4-ylamino)-piperidin-1-yl]-ethyl}-phosphonic Acid Hydrobromide Salt]
activation at 1 µM ([1]; Table 1, A: neurite outgrowth (% of control) of test compound 1000 nM + paclitaxel 50 nM, B: paclitaxel 50 nM alone, DRG neurons, read-out: Neuroprotection rate = (A-B)±S.E.M [%]): 21%
activation at 1 µM ([1]; Table S2, test compound 1000 nM + paclitaxel 50 nM minus paclitaxel 50 nM, read-out: Neuroprotection rate = (A-B) ± S.E.M [%]): 21 ± 0.77%
activation at 1 µM ([1]; supplementary CSV, test compound 1000 nM, read-out: A-B (A: neurite outgrowth (% of control) of test compound (1000 nM) + paclitaxel (50 nM), B: of paclitaxel (50 nM))): 21%
in vitro effective concentration ([1]; neurite outgrowth assay): 10 nM
protective efficacy against paclitaxel-induced neurotoxicity (in words) ([1]; pretreated, + 50 nM paclitaxel, DRG neurons): exhibited protective efficacy
increase of neurite length compared to the positive control (paclitaxel-treated alone) ([1]; pretreated, + 50 nM paclitaxel, Figure 3B): 24–28%
concentration at 1 h [2]: 58 ng/mL and 84.4 nM
inhibition at 10 µM (Adrenergic β1): 4%
inhibition at 10 µM (Dopamine D3): -3%
inhibition at 10 µM (Endothelin ETB): -1%
inhibition at 10 µM (Estrogen ERα): -17%
Inhibition (%), Glutamate, Kainate (Glutamate, Kainate): 0%
inhibition at 10 µM (Histamine H1): 19%
inhibition at 10 µM (Histamine H2): 0%
inhibition at 10 µM (Muscarinic M2): -1%
Inhibition (%), Nicotinic Acetylcholine α1, Bungarotoxin [3]: 7%
Inhibition (%), Nicotinic Acetylcholine α1, Bungarotoxin ([3]; listed as CN168, 10 µM): -6%
Inhibition (%), Purinergic P2Y [4]: 9%
